According to patent US10125100B2, “Kinase inhibitors” (Respivert Limited, priority 2014, dated 2018):
Like-named read-outs stand apart in the source and are kept apart here.

Key:
c-Src = c-Src (Homo sapiens (Human), UniProt P12931); assay: c-Src enzyme inhibition, Z-LYTE FRET; assay type: biochemical
Method in brief: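 Z-LYTE FRET peptide phosphorylation read as donor coumarin over acceptor fluorescein ratio after 1 hr protease development. Compounds (1–0.001 μg/mL) preincubated 2 hr at RT with enzyme; ATP solutions 60 μM for Syk, 800 μM for c-Src; kinase reaction 1 hr.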

Syk = Syk (Homo sapiens (Human), UniProt P43405); assay: Syk enzyme inhibition, Z-LYTE FRET; assay type: biochemical
Method in brief: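 Syk or c-Src enzyme (3000 or 2000 ng/mL solutions) was preincubated 2 h at RT with compound solutions at 1, 0.1, 0.01 or 0.001 µg/mL. Z-LYTE FRET peptide (8 µM solution) and ATP (800 µM solution for c-Src, 60 µM for Syk) were then added for 1 h, followed by protease development for 1 h. Phosphorylation was read as the coumarin/fluorescein emission ratio.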

[1] = Pharmacokinetics and total colon distribution after oral administration; assay type: in vivo; conditions: male, C57BL/6, mouse, mice, Ex. 36 measured after oral 5 mg/kg of Ex. 47 (Na salt)
Method: Studies were conducted by Sai Life Sciences (Hinjewadi, Pune, India) to investigate the systemic pharmacokinetics and total colon tissue distribution of compounds of the invention. In particular, pharmacokinetic studies were carried out in male C57BL/6 mice following a single oral administration of the compound.

B-Raf (V600E) = B-Raf (V600E) (Homo sapiens (Human), UniProt P15056, V600E); assay: KINOMEscan binding of kinase to standard ligand; conditions: KINOMEscan technology
Chain of B-Raf (V600E) (P15056 whole entry V600E): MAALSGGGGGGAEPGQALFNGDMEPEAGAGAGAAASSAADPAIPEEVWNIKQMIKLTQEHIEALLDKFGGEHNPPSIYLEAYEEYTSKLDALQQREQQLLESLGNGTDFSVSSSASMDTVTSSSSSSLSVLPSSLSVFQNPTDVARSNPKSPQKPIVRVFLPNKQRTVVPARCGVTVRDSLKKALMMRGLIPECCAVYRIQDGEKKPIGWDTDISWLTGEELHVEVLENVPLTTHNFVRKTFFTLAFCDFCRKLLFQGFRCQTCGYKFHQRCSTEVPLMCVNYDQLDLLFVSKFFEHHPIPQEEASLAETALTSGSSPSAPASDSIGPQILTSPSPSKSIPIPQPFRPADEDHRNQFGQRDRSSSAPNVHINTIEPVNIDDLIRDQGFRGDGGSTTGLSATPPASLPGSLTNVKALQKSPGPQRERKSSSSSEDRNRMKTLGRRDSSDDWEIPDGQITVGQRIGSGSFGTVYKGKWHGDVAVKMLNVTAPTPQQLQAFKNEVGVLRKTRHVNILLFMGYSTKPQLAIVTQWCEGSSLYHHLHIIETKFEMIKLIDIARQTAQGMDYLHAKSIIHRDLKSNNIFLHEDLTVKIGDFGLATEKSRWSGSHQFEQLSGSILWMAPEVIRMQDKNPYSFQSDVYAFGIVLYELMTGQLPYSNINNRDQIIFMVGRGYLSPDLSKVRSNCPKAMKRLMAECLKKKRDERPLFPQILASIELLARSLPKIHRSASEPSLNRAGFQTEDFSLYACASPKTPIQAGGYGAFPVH
Source text: (§1) These assays may be conducted by DiscoverX (formerly Ambit; San Diego, Calif.).

B-Raf = B-Raf (Homo sapiens (Human), UniProt P15056); assay: KINOMEscan binding of kinase to standard ligand; conditions: KINOMEscan technology
Chain of B-Raf (P15056 whole entry): as the sequence (P15056 whole entry V600E) above, with E600V counted along it
Source text: as §1

non-mutant kinases = assay: KinomeScan selectivity scores; assay type: binding; conditions: for number of individual kinase hits S(1): % Ctrl <1; for number of individual kinase hits S(10): % Ctrl <10; for number of individual kinase hits S(35): % Ctrl <35; for KinomeScan Selectivity Score S(1): non-mutant kinases with % Ctrl <1 / kinases tested; for KinomeScan Selectivity Score S(10): non-mutant kinases with % Ctrl <10 / kinases tested; for KinomeScan Selectivity Score S(35): non-mutant kinases with % Ctrl <35 / kinases tested
Source text: as §1

p38 MAPKα (MAPK14) = p38 MAPKα (MAPK14) (Homo sapiens (Human), UniProt Q16539); assay: p38 MAPKα enzyme inhibition (Method 2), Z-LYTE FRET; assay type: biochemical
Chain of p38 MAPKα (MAPK14) (Q16539 whole entry): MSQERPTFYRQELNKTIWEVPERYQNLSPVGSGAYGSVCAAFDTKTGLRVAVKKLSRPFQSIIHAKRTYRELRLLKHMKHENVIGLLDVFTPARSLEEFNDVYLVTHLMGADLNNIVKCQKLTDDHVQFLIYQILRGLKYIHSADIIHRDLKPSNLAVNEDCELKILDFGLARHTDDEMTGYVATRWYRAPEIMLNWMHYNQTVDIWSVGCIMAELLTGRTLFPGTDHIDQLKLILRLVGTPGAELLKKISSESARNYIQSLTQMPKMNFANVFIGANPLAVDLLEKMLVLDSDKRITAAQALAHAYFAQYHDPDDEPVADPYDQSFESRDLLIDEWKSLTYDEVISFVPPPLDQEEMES
Method in brief: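 Enzyme (200 ng/mL solution) was preincubated 2 h at RT with compound solutions of 1, 0.1, 0.01 or 0.001 μg/mL, and inhibition was read indirectly via MAPKAP-K2 activation/phosphorylation. After a 1 h RT reaction and 1 h protease development, phosphorylation was derived from the coumarin/fluorescein emission ratio.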

Jurkat cells = assay: (r) Cell cytotoxicity assay; assay type: cell-based, human; conditions: 24 hours
Method in brief: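 Viability read by flow cytometry as the fraction of propidium iodide-negative cells (7.5 μg/mL PI, 15 min), relative to 1.0% DMSO control. Beforehand, 1×10^5 Jurkat cells in RPMI/10% FBS were treated 24 h at 37° C., 5% CO2 with test compound at final 20, 5 or 1 μg/mL.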

[2] = total colon, read-out: total colon level
[3] = whole blood, read-out: Mean blood concentration

Chain of c-Src (P12931 whole entry, looked up): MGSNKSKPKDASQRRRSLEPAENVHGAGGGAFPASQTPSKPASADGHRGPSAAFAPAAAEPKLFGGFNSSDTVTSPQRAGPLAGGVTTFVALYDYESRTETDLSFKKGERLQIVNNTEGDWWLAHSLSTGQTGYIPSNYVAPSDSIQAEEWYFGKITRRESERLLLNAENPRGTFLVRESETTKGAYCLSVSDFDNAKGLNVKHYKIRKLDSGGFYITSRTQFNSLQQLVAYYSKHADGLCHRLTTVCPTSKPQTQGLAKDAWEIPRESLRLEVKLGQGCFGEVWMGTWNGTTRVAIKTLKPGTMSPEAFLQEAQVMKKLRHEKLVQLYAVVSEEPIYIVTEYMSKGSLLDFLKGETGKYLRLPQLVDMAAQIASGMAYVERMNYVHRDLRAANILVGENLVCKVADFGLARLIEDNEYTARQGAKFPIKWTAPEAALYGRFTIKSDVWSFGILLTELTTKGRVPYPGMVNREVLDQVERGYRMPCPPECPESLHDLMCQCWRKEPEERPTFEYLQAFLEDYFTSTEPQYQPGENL

SMILES: COc1cc(Nc2cc(Oc3ccc(NC(=O)Nc4cc(C(C)(C)C)cc(NS(C)(=O)=O)c4OC)c4ccccc34)ccn2)cc(OC)c1C(=O)NCCOCCOCCO [Example 36, 4-((4-((4-(3-(5-(tert-butyl)-2-methoxy-3-(methylsulfonamido)phenyl)ureido)naphthalen-1-yl)oxy)pyridin-2-yl)amino)-N-(2-(2-(2-hydroxyethoxy)ethoxy)ethyl)-2,6-dimethoxybenzamide]
- IC50 (c-Src): 0.01 µM
- IC50 (Syk): 0.19 µM
- concentration at 0.5 h [1, 2]: 37.8 ng/g
- concentration at 1 h [1, 2]: 95.1 ng/g
- concentration at 2 h [1, 2]: 643 ng/g
- concentration at 4 h [1, 2]: 798 ng/g
- concentration at 6 h [1, 2]: 380 ng/g
- concentration at 8 h [1, 2]: 1070 ng/g
- concentration at 12 h [1, 2]: 139 ng/g
- concentration at 24 h [1, 2]: 0 ng/g
- concentration at 0.5 h [1, 3]: 0 µg/mL
- concentration at 1 h [1, 3]: 0 µg/mL
- concentration at 2 h [1, 3]: 0 µg/mL
- concentration at 4 h [1, 3]: 0 µg/mL
- concentration at 6 h [1, 3]: 0 µg/mL
- concentration at 8 h [1, 3]: 0 µg/mL
- concentration at 12 h [1, 3]: 0 µg/mL
- concentration at 24 h [1, 3]: 0 µg/mL
- effect on the binding of B-Raf (V600E) to its standard ligand (B-Raf (V600E)): did not have any significant effect
- effect on the binding of B-Raf to its standard ligand (B-Raf): did not have any significant effect
- number of individual kinase hits S(1) (non-mutant kinases; 50 nM): 1
- number of individual kinase hits S(10) (non-mutant kinases; 50 nM): 20
- number of individual kinase hits S(35) (non-mutant kinases; 50 nM): 60
- KinomeScan Selectivity Score S(1) (non-mutant kinases; 50 nM): 0.002
- KinomeScan Selectivity Score S(10) (non-mutant kinases; 50 nM): 0.050
- KinomeScan Selectivity Score S(35) (non-mutant kinases; 50 nM): 0.149
- number of individual kinase hits S(1) (non-mutant kinases; 500 nM): 32
- number of individual kinase hits S(10) (non-mutant kinases; 500 nM): 83
- number of individual kinase hits S(35) (non-mutant kinases; 500 nM): 120
- KinomeScan Selectivity Score S(1) (non-mutant kinases; 500 nM): 0.079
- KinomeScan Selectivity Score S(10) (non-mutant kinases; 500 nM): 0.206
- KinomeScan Selectivity Score S(35) (non-mutant kinases; 500 nM): 0.298
- IC50 (p38 MAPKα (MAPK14)): 0.019 µM
- % Viability at 1 μg/mL (Jurkat cells; 1 μg/mL): 93.3%
- % Viability at 5 μg/mL (Jurkat cells; 5 μg/mL): 89.3%
- % Viability at 20 μg/mL (Jurkat cells; 20 μg/mL): 84.9%
